Reference: ChEMBL document CHEMBL1140535, “Synthesis and evaluation of substituted benzoisoquinolinones as potent inhibitors of Chk1 kinase” (Bioorg Med Chem Lett, 2007)
pEC50, pIC50: −log10 of the molar value. Active and inactive are the calls of the source. The calls are words filed in the database; no cut-off is given here.

Key:
NCI-H1299 = assay: Inhibition of camptothecin induced mitotic arrest in human NCI-H1299 cells after 18 hrs; type: functional, cell-based; details: NCI-H1299, 18 h
[1] = target: T1, Serine/threonine-protein kinase Chk1 (Homo sapiens, UniProt O14757); assay: Inhibition of human Chk1 expressed in baculovirus by time-resolved fluorescence assay
T1 sequence (O14757 whole entry): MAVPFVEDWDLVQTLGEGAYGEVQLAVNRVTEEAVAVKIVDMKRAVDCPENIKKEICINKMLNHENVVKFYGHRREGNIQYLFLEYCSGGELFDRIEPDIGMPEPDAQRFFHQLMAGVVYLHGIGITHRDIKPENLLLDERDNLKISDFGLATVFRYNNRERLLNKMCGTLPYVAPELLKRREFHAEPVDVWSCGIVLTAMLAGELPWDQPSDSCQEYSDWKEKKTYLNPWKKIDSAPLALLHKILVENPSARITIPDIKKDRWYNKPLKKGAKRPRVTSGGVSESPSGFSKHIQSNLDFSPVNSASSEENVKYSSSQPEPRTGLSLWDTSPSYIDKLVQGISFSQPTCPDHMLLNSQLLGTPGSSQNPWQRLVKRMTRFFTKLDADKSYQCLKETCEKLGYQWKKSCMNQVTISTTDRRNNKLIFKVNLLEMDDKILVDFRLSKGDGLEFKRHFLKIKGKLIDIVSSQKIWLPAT

HT-29 [2] = assay: Effect on apoptosis in HT29 cells assessed as increase in caspase 3 activation after 24 hrs; type: functional, cell-based; details: Homo sapiens
HT-29 [3] = assay: Effect on apoptosis in HT29 cells assessed as increase in camptothecin induced caspase 3 activation after 24 hrs; type: functional, cell-based; details: Homo sapiens

| SMILES | pEC50 (NCI-H1299) | pIC50 [1] | Activity (HT-29 [2]) | Activity (HT-29 [3]) |
| --- | --- | --- | --- | --- |
| NCCCc1cc2c(-c3ccc(Cl)cc3)c[nH]c(=O)c2c2cc(-c3cn[nH]c3)ccc12 | 6.49 | 8.92 |  |  |
| NCCc1cc2cc[nH]c(=O)c2c2cc(-c3ccc(CN4CCOCC4)cc3)ccc12 | 6.89 | 9.22 |  |  |
| NCCCc1cc2cc[nH]c(=O)c2c2cc(C(N)=O)ccc12 | < 5.00 | 7.96 |  |  |
| Cn1cc(-c2ccc3c(CCCN)cc4cc[nH]c(=O)c4c3c2)cn1 | 6.02 | 8.04 |  |  |
| C=Cc1c[nH]c(=O)c2c1cc(CCCN)c1ccc(-c3cn[nH]c3)cc12 | 6.68 | 8.44 |  |  |
| NCCCc1cc2c(-c3ccccc3O)c[nH]c(=O)c2c2cc(-c3cn[nH]c3)ccc12 | 6.64 | 8.70 |  |  |
| NCCCc1cc2cc[nH]c(=O)c2c2cc(-c3ccc(CN)cc3)ccc12 | 5.96 | 8.19 |  |  |
| CNCCc1cc2cc[nH]c(=O)c2c2cc(Br)ccc12 |  | 7.36 |  |  |
| N#Cc1cc2cc[nH]c(=O)c2c2cc(Br)ccc12 |  | 6.40 |  |  |
| N#Cc1ccc2c(CCCN)cc3cc[nH]c(=O)c3c2c1 | 5.66 | 7.60 |  |  |
| NCCCc1cc2c(-c3ccc(O)cc3)c[nH]c(=O)c2c2cc(-c3cn[nH]c3)ccc12 | 7.33 | 9.52 |  |  |
| CN(C)CCNC(=O)c1ccc2c(CCCN)cc3cc[nH]c(=O)c3c2c1 | < 5.00 | 8.70 |  |  |
| NCCCc1cc2c(-c3ccccc3F)c[nH]c(=O)c2c2cc(-c3cn[nH]c3)ccc12 | 6.43 | 8.59 |  |  |
| NCCCc1cc2cc[nH]c(=O)c2c2cc(Cl)ccc12 | 6.64 | 7.92 |  |  |
| NCCCc1cc2c(-c3ccc(Cl)cc3Cl)c[nH]c(=O)c2c2cc(-c3cn[nH]c3)ccc12 | 6.57 | 8.92 |  |  |
| NCCCc1cc2c(-c3ccccc3Cl)c[nH]c(=O)c2c2cc(-c3cn[nH]c3)ccc12 | 6.89 | 9.10 |  |  |
| O=c1[nH]ccc2c3[nH]c(-c4cccnc4)nc3c3ccc(F)cc3c12 |  | 6.96 |  |  |
| NCCCc1cc2c(Br)c[nH]c(=O)c2c2cc(-c3cn[nH]c3)ccc12 | 6.85 | 8.64 |  |  |
| CN(C)CCc1cc2cc[nH]c(=O)c2c2cc(Br)ccc12 |  | 6.89 |  |  |
| NCCCc1cc2c(-c3cccc(O)c3)c[nH]c(=O)c2c2cc(-c3cn[nH]c3)ccc12 | 7.17 | 9.00 |  |  |
| COC(=O)c1cc2cc[nH]c(=O)c2c2cc(Br)ccc12 |  | 6.52 |  |  |
| NCCCc1cc2cc[nH]c(=O)c2c2cc(-c3ccc[nH]3)ccc12 | 7.36 | 8.62 |  |  |

| SMILES | pEC50 (NCI-H1299) | pIC50 [1] | Activity (HT-29 [2]) | Activity (HT-29 [3]) |
| --- | --- | --- | --- | --- |
| NCCCc1cc2c(-c3cccc(Cl)c3)c[nH]c(=O)c2c2cc(-c3cn[nH]c3)ccc12 | 5.98 | 7.94 |  |  |
| NCCCc1cc2c(-c3ccccc3)c[nH]c(=O)c2c2cc(-c3cn[nH]c3)ccc12 | 6.85 | 8.70 |  |  |
| N#Cc1cc2cc[nH]c(=O)c2c2cc(Cl)ccc12 |  | 5.97 |  |  |
| O=c1[nH]ccc2ccc3ccc(Cl)cc3c12 |  | 6.24 |  |  |
| NCCc1cc2cc[nH]c(=O)c2c2cc(-c3cn[nH]c3)ccc12 | 7.10 | 8.52 | inactive | Active |
| NCCCc1cc2cc[nH]c(=O)c2c2cc(-c3ccn[nH]3)ccc12 | 6.82 | 8.37 |  |  |
| O=c1[nH]ccc2c3[nH]cnc3c3ccc(F)cc3c12 |  | 6.21 |  |  |
| O=c1[nH]ccc2cc(CCO)c3ccc(Br)cc3c12 |  | 6.11 |  |  |
| O=c1[nH]ccc2c3[nH]c(-c4ccccc4)nc3c3ccc(F)cc3c12 |  | 5.97 |  |  |
| NCCc1cc2cc[nH]c(=O)c2c2cc(-c3ccn[nH]3)ccc12 | 7.00 | 8.60 |  |  |
| NCCc1cc2cc[nH]c(=O)c2c2cc(Br)ccc12 |  | 8.52 |  |  |
| COC(=O)c1cc2cc[nH]c(=O)c2c2cc(Cl)ccc12 |  | 6.44 |  |  |
| N#CCCc1cc2cc[nH]c(=O)c2c2cc(Cl)ccc12 |  | 6.29 |  |  |
| O=c1[nH]ccc2cc(CO)c3ccc(Br)cc3c12 |  | 6.36 |  |  |
| NCCCc1cc2c(-c3cccc(F)c3)c[nH]c(=O)c2c2cc(-c3cn[nH]c3)ccc12 | 6.52 | 8.43 |  |  |
| NCCCc1cc2cc[nH]c(=O)c2c2ccccc12 |  | 7.01 |  |  |
| NCCCc1cc2cc[nH]c(=O)c2c2cc(Br)ccc12 | 6.51 | 7.77 |  |  |
| NCCCc1cc2cc[nH]c(=O)c2c2cc(-c3cn[nH]c3)ccc12 | 7.19 | 8.46 |  |  |
| N#CCCc1cc2cc[nH]c(=O)c2c2cc(Br)ccc12 |  | 6.38 |  |  |
| NCCc1cc2cc[nH]c(=O)c2c2cc(-c3ccc[nH]3)ccc12 | 7.85 | 9.30 |  |  |
| NCCc1cc2cc[nH]c(=O)c2c2cc(Cl)ccc12 |  | 7.96 |  |  |
| NCCCc1cc2c(-c3ccc(F)cc3)c[nH]c(=O)c2c2cc(-c3cn[nH]c3)ccc12 | 6.43 | 8.46 |  |  |
